In publication PMC7475179, “Characterization of a caffeoyl-CoA O-methyltransferase-like enzyme involved in biosynthesis of polymethoxylated flavones in Citrus reticulata” (Journal of Experimental Botany, 2020):

Tested on: CrOMT1
Experiment: MTase-Glo methyltransferase assay (SAH luminescence), Michaelis-Menten fit
Assay type: biochemical, Citrus reticulata
Details: 2 mM SAM, 50 mM Tris-HCl pH 8.0, 37 °C, 30 min

| SMILES | Km | further results |
| --- | --- | --- |
| O=c1cc(-c2ccccc2)oc2c(O)c(O)ccc12 [7,8-dihydroxyflavone] |  | Km (8-O-methylation): 1.8 ± 0.4 µM |
| O=c1cc(-c2ccccc2)oc2cc(O)c(O)c(O)c12 [baicalein] |  | Km (6-O-methylation): 3.3 ± 0.6 µM |
| C[C@@H]1O[C@@H](OC[C@H]2O[C@@H](Oc3cc(O)c4c(c3)O[C@H](c3ccc(O)c(O)c3)CC4=O)[C@H](O)[C@@H](O)[C@@H]2O)[C@H](O)[C@H](O)[C@H]1O [eriocitrin, eriodictyol-7-O-rutinoside] | 7.9 ± 1 µM |  |
| O=c1cc(-c2ccc(O)c(O)c2)oc2cc(O)cc(O)c12 [luteolin, 5,7,3',4'-tetrahydroxyflavone] |  | Km (3'-O-methylation): 3.1 ± 0.6 µM |
| O=c1c(O)c(-c2ccc(O)c(O)c2)oc2cc(O)cc(O)c12 [quercetin] | 4.5 ± 0.8 µM |  |

More lines, main results first:

| Km | SMILES | further results |
| --- | --- | --- |
| 61.8 ± 9.9 µM | O=C1C[C@@H](c2ccc(O)c(O)c2)Oc2cc(O)cc(O)c21 [eriodictyol] |  |
| 248 µM | O=c1c(O)c(-c2ccc(O)cc2)oc2cc(O)cc(O)c12 [kaempferol] |  |
| 23.8 ± 4.3 µM | O=c1c(O)c(-c2cc(O)c(O)c(O)c2)oc2cc(O)cc(O)c12 [myricetin] |  |
| 8.7 ± 1 µM | C[C@@H]1O[C@@H](O[C@H]2[C@H](Oc3cc(O)c4c(c3)O[C@H](c3ccc(O)c(O)c3)CC4=O)O[C@H](CO)[C@@H](O)[C@@H]2O)[C@H](O)[C@H](O)[C@H]1O [neoeriocitrin, eriodictyol-7-O-neohesperidoside] |  |
| 3.9 ± 0.5 µM | COc1c(-c2ccc(O)c(O)c2)oc2cc(O)cc(O)c2c1=O [quercetin 3-methyl ether] |  |
| 0.6 µM | O=c1cc(-c2cc(O)c(O)c(O)c2)oc2cc(O)cc(O)c12 [tricetin] |  |
